Results reported in patent EP4772505A1, “COMPOUND FOR DEGRADING ANDROGEN RECEPTOR AND MEDICAL USE THEREOF” (Ubix Therapeutics, Inc., priority 2023, dated 2025).
Like-named read-outs stand apart in the source and are kept apart here.

Target: T1, Androgen Receptor (AR) (Homo sapiens, UniProt P10275)
T1 sequence (P10275 1-920): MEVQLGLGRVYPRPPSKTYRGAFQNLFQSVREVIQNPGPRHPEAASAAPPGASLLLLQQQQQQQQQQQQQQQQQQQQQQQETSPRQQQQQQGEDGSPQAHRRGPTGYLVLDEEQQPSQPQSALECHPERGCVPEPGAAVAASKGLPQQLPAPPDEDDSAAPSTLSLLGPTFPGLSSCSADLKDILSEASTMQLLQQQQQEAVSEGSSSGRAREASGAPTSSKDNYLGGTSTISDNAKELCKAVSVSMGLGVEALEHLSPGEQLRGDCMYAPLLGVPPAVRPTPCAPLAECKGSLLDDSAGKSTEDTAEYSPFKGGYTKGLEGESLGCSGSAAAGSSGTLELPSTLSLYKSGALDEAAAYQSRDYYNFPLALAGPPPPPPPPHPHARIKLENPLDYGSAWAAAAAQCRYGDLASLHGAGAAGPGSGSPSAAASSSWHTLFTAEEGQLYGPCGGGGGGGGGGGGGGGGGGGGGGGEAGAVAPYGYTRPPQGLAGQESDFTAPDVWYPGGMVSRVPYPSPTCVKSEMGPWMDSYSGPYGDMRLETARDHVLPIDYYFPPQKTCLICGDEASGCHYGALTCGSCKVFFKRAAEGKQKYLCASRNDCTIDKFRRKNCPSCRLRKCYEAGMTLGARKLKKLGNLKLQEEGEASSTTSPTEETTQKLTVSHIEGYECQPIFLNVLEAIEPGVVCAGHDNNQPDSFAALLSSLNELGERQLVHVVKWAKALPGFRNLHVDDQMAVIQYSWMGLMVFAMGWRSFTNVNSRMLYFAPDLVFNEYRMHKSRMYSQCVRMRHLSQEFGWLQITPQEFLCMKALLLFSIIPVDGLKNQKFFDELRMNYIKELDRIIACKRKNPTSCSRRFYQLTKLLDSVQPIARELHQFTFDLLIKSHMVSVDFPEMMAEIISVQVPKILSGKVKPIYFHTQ
Test: Measurement of AR protein degradation in VCaP cells by Western blotting
Type: cell-based
Design: endogenous in cells; host or cells: VCaP
Conditions: for Dmax at 0.01 µM / Dmax at 0.1 µM: read-out: AR degradation in VCaP cells (%); for Dmax: read-out: AR degradation in VCaP cells Dmax (%); for DC50: read-out: AR degradation in VCaP cells DC50
Method: The amount of AR protein present in LNCaP or VCaP cells was measured after treating them with the synthesized compound. The amount of AR protein was measured using Western blotting. The protocol for the experiments using LNCaP or VCaP cells was as follows.
[Culture] LNCaP cells were resuspended in RPMI1640 medium + HEPES (Hyclone, SH30255.01), 10% FBS (Hyclone, SV30207.02), and 1% Penicillin-streptomycin (Welgene, LS 202-02). 3 x 10^5 cells/mL were seeded in 12-well plates (1 mL per well) and cultured for 3 days. VCaP cells were resuspended in IMDM MEDIUM (Hyclone, SH30228.01), 20% FBS (Hyclone, SV30207.02), and 1% Penicillin-streptomycin (Welgene, LS 202-02), seeded at 9 x 10^5/mL in 1 mL per 12-well plate, and cultured for 3 days.
[Compound Treatment] 10 µL of 100x stock (e.g., 0.1, 1, 10 µM) compound solution at the final compound treatment concentration (e.g., 0.001, 0.01, 0.1 µM) was added to each well in 1 mL media, and cells were harvested after 20 hours. For DC50 measurement, 100x stock (0.01, 0.1, 1, 10, 100, 1000 µM) compound solutions at the final compound treatment concentration (0.0001, 0.001, 0.01, 0.1, 1, 10 µM) were used.
[Cell lysis] The cell pellet was suspended using 1% SDS lysis buffer (50 mM Tris, 1 mM EDTA, 1% SDS, pH 8.0, 0.5 mM PMSF, 1x Protease/Phosphatase inhibitor Cocktail (Cell Signaling Technology, 5872S)), and sonication (70% AMP, 10 cycles (30 sec ON/59 sec OFF)) was performed. After centrifugation at 4°C and 20,000 g for 20 minutes, the cell lysate was obtained and transferred to a new tube.
[Protein Quantification] A BCA protein assay (SMART™ BCA Protein Assay Kit, iNtRON Biotechnology, 21071) was performed using a 96-well microplate. 5 µL of cell lysate and 5 µL of 1% SDS lysis buffer were added to each well of the 96-well plate, followed by an additional 200 µL of BCA reagent (Reagent A: Reagent B = 50:1). The wells were incubated at 37°C for 30 minutes and cooled to room temperature for 10 minutes. After shaking for 10 seconds, the absorbance was measured at a wavelength of 562 nm. The unknown protein concentration was determined using a BSA standard curve (0, 0.125, 0.25, 0.5, 1, 2 mg/mL). Western blotting samples were prepared by mixing cell lysate, 1% SDS lysis buffer, 4x NuPAGE™ LDS Sample buffer (Invitrogen, NP0008), and 10X NuPAGE™ Sample Reducing Agent (Invitrogen, NP0009) and boiling at 70°C for 10 minutes.
[Electrophoresis] 10 µg of protein sample was loaded into each well of a NuPAGE™ 4 to 12%, Bis-Tris, 1.0 mm Mini Protein Gel, 15-well, 17-well, or 26-well (Invitrogen, NP0323BOX, NP0329BOX, or WG1403BOX) and electrophoresed for 40 minutes using NuPAGE™MES SDS Running Buffer (Invitrogen, NP0002) at 200 V (constant V).
[Transfer] Transfer was performed for 15 or 18 minutes using the electrophoresed gel and the Trans-Blot® Turbo™ Transfer Starter System (Bio-RAD, #17001918, Mini Nitrocellulose) at 1.3 A (constant A) and 25 V (limit V). To confirm protein transfer, 15 mL of Ponceau S solution (Sigma, P7170-1L) was used to stain for 1 minute, and then washed to check the degree of transfer.
[Blocking] The membrane for AR and GAPDH detection was blocked with 5% skim milk/0.2% TBST (Skim milk: BD, 232100/ 20X TBS: Biosesang, TR2008-100-00/ 10% Tween 20 Solution: Bio-RAD, #161-0781) for 45 minutes.
[Antibodies and Detection] Primary AR antibody (Androgen Receptor: CST, 5153S) was mixed with 5% skim milk/0.2% TBST at a ratio of 1:1,000 and reacted at room temperature for 3 hours or at 4°C overnight. Primary GAPDH antibody (CST, 2118S) was mixed with 5% skim milk/0.2% TBST at a ratio of 1:2,000 and reacted at room temperature for 3 hours or at 4°C overnight. Afterwards, TBST (0.2% Tween 20) was used for washing three times every 5 minutes. Secondary antibody to AR antibody, Anti-rabbit IgG, HRP-linked Antibody (CST, 7074S), was mixed with 5% skim milk/0.2% TBST at a ratio of 1:5,000 and reacted at room temperature for 45 minutes. […]

Dmax at 0.01 µM (10 nM compound, 20 hours, VCaP cells) [%]	Dmax at 0.1 µM (100 nM compound, 20 hours, VCaP cells) [%]	Structure (SMILES)	Dmax at 0.01 µM (VCaP, 20 h) [%]	Dmax at 0.1 µM (VCaP, 20 h) [%]	Dmax (VCaP) [%]	DC50 (VCaP cells, 20 hours) [nM]
		N#Cc1ccc(N2CCC(C(=O)Nc3ccc(OC4CCN(CC5CCN(c6ccc(N[C@H]7CCC(=O)NC7=O)cc6F)CC5)CC4)cn3)CC2)cc1C(F)(F)F [Example 2, (S)-1-(4-cyano-3-(trifluoromethyl)phenyl)-N-(5-((1-((1-(4-((2,6-dioxopiperidin-3-yl)amino)-2-fluorophenyl)piperidin-4-yl)methyl)piperidin-4-yl)oxy)pyridin-2-yl)piperidine-4-carboxamide]	83	99	99	0.19
		N#Cc1ccc(N2CCC(C(=O)Nc3ccc(OC4CCN(CC5CCN(c6ccc(NC7CCC(=O)NC7=O)cc6F)CC5)CC4)cn3)CC2)cc1Cl (stereo not drawn) [Example 8, 1-(3-chloro-4-cyanophenyl)-N-(5-((1-((1-(4-((2,6-dioxopiperidin-3-yl)amino)-2-fluorophenyl)piperidin-4-yl)methyl)piperidin-4-yl)oxy)pyridin-2-yl)piperidine-4-carboxamide]	94	99		
99	100	COc1cc(N2CCC(C(=O)Nc3ccc(OC4CCN(CC5CCN(c6ccc(NC7CCC(=O)NC7=O)cc6F)CC5)CC4)nn3)CC2)ccc1C#N (stereo not drawn) [Example 16, 1-(4-cyano-3-methoxyphenyl)-N-(6-((1-((1-(4-((2,6-dioxopiperidin-3-yl)amino)-2-fluorophenyl)piperidin-4-yl)methyl)piperidin-4-yl)oxy)pyridazin-3-yl)piperidine-4-carboxamide]				
		N#Cc1ccc(N2CCC(C(=O)Nc3ccc(OC4CCN(CC5CCN(c6ccc(N[C@H]7CCC(=O)NC7=O)cc6F)CC5)CC4)cn3)CC2)cc1Cl [Example 9, (S)-1-(3-chloro-4-cyanophenyl)-N-(5-((1-((1-(4-((2,6-dioxopiperidin-3-yl)amino)-2-fluorophenyl)piperidin-4-yl)methyl)piperidin-4-yl)oxy)pyridin-2-yl)piperidine-4-carboxamide]	94	99	99	0.1
		N#Cc1ccc(N2CCC(C(=O)Nc3ccc(OC4CCN(CC5CCN(c6ccc(N[C@@H]7CCC(=O)NC7=O)cc6F)CC5)CC4)cn3)CC2)cc1C(F)(F)F [Example 3, (R)-1-(4-cyano-3-(trifluoromethyl)phenyl)-N-(5-((1-((1-(4-((2,6-dioxopiperidin-3-yl)amino)-2-fluorophenyl)piperidin-4-yl)methyl)piperidin-4-yl)oxy)pyridin-2-yl)piperidine-4-carboxamide]	72	96		
		N#Cc1ccc(N2CCC(C(=O)Nc3ccc(OC4CCN(CC5CCN(c6ccc(NC7CCC(=O)NC7=O)cc6F)CC5)CC4)cn3)CC2)c(F)c1Cl (stereo not drawn) [Example 12, 1-(3-chloro-4-cyano-2-fluorophenyl)-N-(5-((1-((1-(4-((2,6-dioxopiperidin-3-yl)amino)-2-fluorophenyl)piperidin-4-yl)methyl)piperidin-4-yl)oxy)pyridin-2-yl)piperidine-4-carboxamide]	94	98		
		N#Cc1ccc(N2CCC(C(=O)Nc3ccc(OC4CCN(CC5CCN(c6ccc(NC7CCC(=O)NC7=O)cc6Cl)CC5)CC4)cn3)CC2)cc1C(F)(F)F (stereo not drawn) [Example 17, N-(5-((1-((1-(2-chloro-4-((2,6-dioxopiperidin-3-yl)amino)phenyl)piperidin-4-yl)methyl)piperidin-4-yl)oxy)pyridin-2-yl)-1-(4-cyano-3-(trifluoromethyl)phenyl)piperidine-4-carboxamide]	75	97		
		N#Cc1ccc(N2CCC(C(=O)Nc3ccc(OC4CCN(CC5CCN(c6ccc(N[C@@H]7CCC(=O)NC7=O)cc6F)CC5)CC4)cn3)CC2)cc1Cl [Example 10, (R)-1-(3-chloro-4-cyanophenyl)-N-(5-((1-((1-(4-((2,6-dioxopiperidin-3-yl)amino)-2-fluorophenyl)piperidin-4-yl)methyl)piperidin-4-yl)oxy)pyridin-2-yl)piperidine-4-carboxamide]	85	99		
		N#Cc1ccc(N2CCC(C(=O)Nc3ccc(OC4CCN(CC5CCN(c6ccc(NC7CCC(=O)NC7=O)cc6F)CC5)CC4)nn3)CC2)c(F)c1Cl (stereo not drawn) [Example 15, 1-(3-chloro-4-cyano-2-fluorophenyl)-N-(6-((1-((1-(4-((2,6-dioxopiperidin-3-yl)amino)-2-fluorophenyl)piperidin-4-yl)methyl)piperidin-4-yl)oxy)pyridazin-3-yl)piperidine-4-carboxamide]	98	100		
		N#Cc1ccc(N2CCC(C(=O)Nc3ccc(OC4CCN(CC5CCN(c6ccc(NC7CCC(=O)NC7=O)cc6F)CC5)CC4)cn3)CC2)cc1C(F)(F)F (stereo not drawn) [Example 1, 1-(4-cyano-3-(trifluoromethyl)phenyl)-N-(5-((1-((1-(4-((2,6-dioxopiperidin-3-yl)amino)-2-fluorophenyl)piperidin-4-yl)methyl)piperidin-4-yl)oxy)pyridin-2-yl)piperidine-4-carboxamide]	89	99		
